# US10208009B2, “Hydroxyl pyranone compound, method for producing same, and cosmetics composition comprising compound” (AMOREPACIFIC CORPORATION, priority 2015, dated 2019)
# Tested on: human adipose tissue derived mesenchymal stem cells (hAT-MSCs)
# Assay: Adipocyte differentiation promoting effect: adiponectin expression (ELISA) in differentiating mesenchymal stem cells
# Assay type: cell-based
# Design: Adiponectin (pg/ml, Avg ± S.D.): unit of the concentration uncertain
# Conditions: for Adiponectin (pg/ml, Avg ± S.D.): medium collected on 14th day, ELISA; for expression level of adiponectin (in words): IDX differentiation medium + material, 14th day, summary of Table 1
# Protocol: In order to examine the adipocyte differentiation promoting effect of the compounds prepared in the Example, the following test was carried out.
# Adiponectin is a typical protein hormone secreted from adipocytes. It has been reported that as adipocytes are differentiated, the expression of adiponectin is increased. Therefore, the adipocyte differentiation promoting effect was confirmed by measuring the amount of adiponectin expressed in the cell culture medium when treated with the novel compound of the present invention, which is an indicator of adipocyte differentiation promoting.
# The adipocyte differentiation was performed by culturing human adipose tissue derived mesenchymal stem cells (hAT-MSCs) from Lonza Inc. (Walkersville, Md., USA) according to Lonza's guidelines. The adipocyte differentiation was carried out using the method recommended by Lonza Inc., except that the adipocyte differentiation of adipose-derived mesenchymal stem cells is induced by using troglitazone (TRO) instead of indomethacin. Specifically, the mesenchymal stem cells were differentiated into adipocytes by adding the medium for adipocyte differentiation (hereinafter referred to as IDX), which was prepared by mixing […] of insulin, […] of Dexamethasone (DEXA), 0.5 mM of isobutylmethylxanthine (IBMX) and […] of TRO, to the culture medium of mesenchymal stem cells, and then culturing it.
# In order to determine the expression level of adiponectin, after the medium for adipocyte differentiation was collected on the 14th day of differentiation, the amount of adiponectin was quantified using the Adiponectin ELISA Kit (R & D systems, Cat. No. DY1065) (each data value was corrected by the control group). The specific measurement method using Adiponectin ELISA Kit was as follows.
# First, the capture antibody was reacted in a 96-well plate, washed with washing buffer solution, and then the material shown in Table 1 below was added and reacted at room temperature for 2 hours. Thereafter, while washing three times every time when going through each step, the detection antibody, the HRP enzyme, the substrate solution, and the stop solution were added in order and reacted for the time indicated in the protocol. After the final reaction, the absorbance was measured at a wavelength of 450 nm using a spectrophotometer.
# [1] = IDX differentiation medium + material at 60 (unit uncertain)
Structure (SMILES),"Adiponectin (pg/ml, Avg ± S.D.) [1] [pg/mL]",expression level of adiponectin (in words),"Adiponectin (pg/ml, Avg ± S.D.) (IDX differentiation medium + material at 400 (unit uncertain)) [pg/mL]","Adiponectin (pg/ml, Avg ± S.D.) (IDX differentiation medium + material (concentration not given)) [pg/mL]"
"CC1=CCCC(C)(C)C1/C=C/C(=O)OCc1cc(=O)c(O)co1 (stereo not drawn) [compound of example (Formula 1), 3-(2,6,6-trimethyl-cyclohex-2-enyl)-propenoic acid 5-hydroxy-4-oxo-4H-pyran-2-ylmethyl ester]",1730 ± 120,increases almost similarly to that with Glibenclamide,–,–
O=C(/C=C/c1ccc2c(c1)OCO2)OCc1cc(=O)c(O)co1 [Seletinoid G],1505 ± 109,–,–,–
O=c1cc(CO)occ1O [Kojic acid],–,not increased,303 ± 98,–
COc1ccc(Cl)cc1C(=O)NCCc1ccc(S(=O)(=O)NC(=O)NC2CCCCC2)cc1 [Glibenclamide],–,–,–,1920 ± 100
